These results are taken from paper PMC8201645 (Journal of medicinal chemistry, 2020).

The subject of one experiment is hBM-MSCs. The note with it: 10 μM cotreated with IDX medium for 5 d.
Experiment [1] addresses T1, PPARδ-LBD (Homo sapiens, UniProt Q03181).
T1 sequence (Q03181 211-439 limits assumed): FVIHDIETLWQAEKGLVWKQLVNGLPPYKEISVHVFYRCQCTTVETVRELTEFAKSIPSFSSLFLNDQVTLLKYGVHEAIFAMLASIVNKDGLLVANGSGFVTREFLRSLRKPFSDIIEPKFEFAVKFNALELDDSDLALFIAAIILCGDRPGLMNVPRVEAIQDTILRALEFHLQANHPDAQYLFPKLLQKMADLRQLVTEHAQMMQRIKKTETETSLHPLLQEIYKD

The target of experiment [2] is T2, human A3AR (Homo sapiens, UniProt P0DMS8).
T2 sequence (P0DMS8 1-318): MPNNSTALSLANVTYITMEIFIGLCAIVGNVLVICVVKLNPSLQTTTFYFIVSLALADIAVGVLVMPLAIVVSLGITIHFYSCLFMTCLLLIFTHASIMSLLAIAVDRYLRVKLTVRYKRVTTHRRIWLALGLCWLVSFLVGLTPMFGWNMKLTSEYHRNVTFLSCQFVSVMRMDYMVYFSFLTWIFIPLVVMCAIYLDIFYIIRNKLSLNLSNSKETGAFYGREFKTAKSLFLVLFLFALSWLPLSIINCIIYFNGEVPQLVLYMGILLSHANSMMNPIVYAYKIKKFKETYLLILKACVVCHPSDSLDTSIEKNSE
The note with it: at 10 μM; previously reported; cited from earlier work.

The target of experiment [3] is T1, PPARδ-LBD. This is another data set of the same source.
The target of the next experiment is T3, PPARδ (Homo sapiens, UniProt Q03181).
T3 sequence (Q03181 171-441 limits assumed): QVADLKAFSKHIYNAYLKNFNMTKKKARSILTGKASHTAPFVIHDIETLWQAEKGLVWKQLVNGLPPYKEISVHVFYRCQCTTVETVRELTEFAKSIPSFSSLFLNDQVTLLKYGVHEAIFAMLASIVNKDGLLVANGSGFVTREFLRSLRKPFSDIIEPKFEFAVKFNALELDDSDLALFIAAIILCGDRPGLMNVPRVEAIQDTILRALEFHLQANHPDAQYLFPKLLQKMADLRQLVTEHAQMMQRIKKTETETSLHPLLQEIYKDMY
The following applies: TR-FRET-based assay.

In the next experiment the target is T4, PPARγ (Homo sapiens, UniProt P37231).
T4 sequence (P37231 235-505 limits assumed): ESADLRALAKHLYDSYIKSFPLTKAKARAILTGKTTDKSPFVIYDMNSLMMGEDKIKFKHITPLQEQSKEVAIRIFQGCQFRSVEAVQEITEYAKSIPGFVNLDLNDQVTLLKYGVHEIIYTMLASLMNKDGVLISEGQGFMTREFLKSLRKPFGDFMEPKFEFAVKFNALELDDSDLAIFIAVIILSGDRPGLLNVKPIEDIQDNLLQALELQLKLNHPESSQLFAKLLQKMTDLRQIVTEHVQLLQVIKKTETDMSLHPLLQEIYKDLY
The note with it: TR-FRET-based assay.

The target of another experiment is T5, PPARγ-LBD (Homo sapiens, UniProt P37231).
T5 sequence (P37231 238-503 limits assumed): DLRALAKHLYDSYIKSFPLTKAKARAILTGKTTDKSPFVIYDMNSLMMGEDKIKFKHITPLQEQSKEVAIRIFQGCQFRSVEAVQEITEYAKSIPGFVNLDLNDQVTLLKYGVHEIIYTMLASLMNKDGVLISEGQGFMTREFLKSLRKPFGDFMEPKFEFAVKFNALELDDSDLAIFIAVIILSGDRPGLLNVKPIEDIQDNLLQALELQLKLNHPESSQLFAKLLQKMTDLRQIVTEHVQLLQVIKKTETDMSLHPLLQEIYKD
The note with it: fluorescein-TRAP220/DRIP peptide.

Experiment [4] deals with T2, human A3AR. The note with it: at 10 μM.

The structures appear in SMILES notation. Read-outs that look alike come from different tables or passages of the source.

For the compound `O[C@@H]1[C@H](O)CS[C@H]1Cn1cnc2c(NCc3cccc(F)c3)nc(Cl)nc21` [4a, (2S,3R,4S)-2-((2-Chloro-6-((3-fluorobenzyl)amino)-9H-purin-9-yl)methyl)tetrahydrothiophene-3,4-diol], the “adiponectin production compared to the IDX vehicle control” value in the experiment on hBM-MSCs was “significantly promoted adiponectin production”. Moreover, the “interaction between PPARδ-LBD and corepressor peptide SMRT-ID2” value on PPARδ-LBD [1] is “significantly increased the interaction between PPARδ-LBD and the corepressor peptide”. Also, on human A3AR [2], the hA3AR % replacement is given as 17% at 10 μM. Besides, the “recruitment of coactivator peptide C33 to PPARδ-LBD” value (“recruitment … to PPARδ-LBD” for short) at PPARδ-LBD [3] is given as “no effect on the recruitment of coactivator peptide”. The “PPARδ-binding activity (in words)” value at PPARδ is given as “significant dual receptor-binding activity”. Moreover, on PPARγ, the “PPARγ-binding activity (in words)” value is given as “significant dual receptor-binding activity”.
As to `O[C@@H]1[C@H](O)CS[C@H]1Cn1cnc2c(NCc3cccc(Cl)c3)nc(Cl)nc21` [4b, (2S,3R,4S)-2-((2-Chloro-6-((3-chlorobenzyl)amino)-9H-purin-9-yl)methyl)tetrahydrothiophene-3,4-diol], the hA3AR % replacement at human A3AR [2] is recorded as 13% at 10 μM.
As to `O[C@@H]1[C@H](O)CS[C@H]1Cn1cnc2c(NCc3cccc(Br)c3)nc(Cl)nc21` [4c, (2S,3R,4S)-2-((6-((3-Bromobenzyl)amino)-2-chloro-9H-purin-9-yl)methyl)tetrahydrothiophene-3,4-diol], the “adiponectin production compared to the IDX vehicle control” value with hBM-MSCs was “significantly promoted adiponectin production”. Moreover, the “interaction between PPARδ-LBD and corepressor peptide SMRT-ID2” value on PPARδ-LBD [1] was “significantly increased the interaction between PPARδ-LBD and the corepressor peptide”. The hA3AR % replacement on human A3AR [2] is reported as 21% at 10 μM. Besides, the “recruitment … to PPARδ-LBD” value on PPARδ-LBD [3] was “no effect on the recruitment of coactivator peptide”. Also, the “PPARδ-binding activity (in words)” value on PPARδ is recorded as “significant dual receptor-binding activity”. Moreover, on PPARγ, the “PPARγ-binding activity (in words)” value is “significant dual receptor-binding activity”.
Turning to `O[C@@H]1[C@H](O)CS[C@H]1Cn1cnc2c(NCc3cccc(I)c3)nc(Cl)nc21` [4d, (2S,3R,4S)-2-((2-Chloro-6-((3-iodobenzyl)amino)-9H-purin-9-yl)-methyl)tetrahydrothiophene-3,4-diol], the “interaction between PPARδ-LBD and corepressor peptide SMRT-ID2” value at PPARδ-LBD [1] is “significantly increased the interaction between PPARδ-LBD and the corepressor peptide”. Besides, on PPARδ-LBD [1] (27 (1 μM), 4d (10 μM), 28 (1 μM)), the “PPARδ corepressor recruitment in presence of PPARδ agonist 27” value is on record as “significantly inhibited by 27”. In addition, the hA3AR % replacement on human A3AR [2] is given as 10% at 10 μM. Also, the “recruitment … to PPARδ-LBD” value on PPARδ-LBD [3] is recorded as “no effect on the recruitment of coactivator peptide”. The “PPARδ-binding activity (in words)” value on PPARδ is listed as “significant dual receptor-binding activity”.
With `O[C@@H]1[C@H](O)CS[C@H]1Cn1cnc2c(NCc3cccc(F)c3)ncnc21` [4e, (2S,3R,4S)-2-((6-((3-Fluorobenzyl)amino)-9H-purin-9-yl)methyl)-tetrahydrothiophene-3,4-diol], the hA3AR % replacement at human A3AR [2] is on record as 9% at 10 μM.
For `O[C@@H]1[C@H](O)CS[C@H]1Cn1cnc2c(NCc3cccc(Cl)c3)ncnc21` [4f, (2S,3R,4S)-2-((6-((3-Chlorobenzyl)amino)-9H-purin-9-yl)methyl)-tetrahydrothiophene-3,4-diol], the hA3AR % replacement on human A3AR [2] is reported as 9% at 10 μM.
Regarding `O[C@@H]1[C@H](O)CS[C@H]1Cn1cnc2c(NCc3cccc(Br)c3)ncnc21` [4g, (2S,3R,4S)-2-((6-((3-Bromobenzyl)amino)-9H-purin-9-yl)methyl)-tetrahydrothiophene-3,4-diol], the hA3AR % replacement on human A3AR [2] was 6% at 10 μM.
Take `O[C@@H]1[C@H](O)CS[C@H]1Cn1cnc2c(NCc3cccc(I)c3)ncnc21` [4h, (2S,3R,4S)-2-((6-((3-Iodobenzyl)amino)-9H-purin-9-yl)methyl)-tetrahydrothiophene-3,4-diol]: the hA3AR % replacement at human A3AR [2] is 14% at 10 μM.
As to `CC#Cc1nc(NCc2cccc(F)c2)c2ncn(C[C@@H]3SC[C@@H](O)[C@H]3O)c2n1` [4i, (2S,3R,4S)-2-((6-((3-Fluorobenzyl)amino)-2-(prop-1-yn-1-yl)-9H-purin-9-yl)methyl)tetrahydrothiophene-3,4-diol], the “adiponectin production compared to the IDX vehicle control” value in the experiment on hBM-MSCs is reported as “significantly promoted adiponectin production”.
For the compound `CC#Cc1nc(NCc2cccc(Cl)c2)c2ncn(C[C@@H]3SC[C@@H](O)[C@H]3O)c2n1` [4j, (2S,3R,4S)-2-((6-((3-Chlorobenzyl)amino)-2-(prop-1-yn-1-yl)-9H-purin-9-yl)methyl)tetrahydrothiophene-3,4-diol], on PPARγ-LBD, the “coactivator peptide recruitment to PPARγ-LBD” value is on record as “no statistical significance”.
Regarding `CC#Cc1nc(NCc2cccc(Br)c2)c2ncn(C[C@@H]3SC[C@@H](O)[C@H]3O)c2n1` [4k, (2S,3R,4S)-2-((6-((3-Bromobenzyl)amino)-2-(prop-1-yn-1-yl)-9H-purin-9-yl)methyl)tetrahydrothiophene-3,4-diol], in the experiment on hBM-MSCs, the “adiponectin production compared to the IDX vehicle control” value was “significantly promoted adiponectin production”.
The same measure, in the same setting: under `CC#Cc1nc(NCc2cccc(I)c2)c2ncn(C[C@@H]3SC[C@@H](O)[C@H]3O)c2n1` [4l, (2S,3R,4S)-2-((6-((3-Iodobenzyl)amino)-2-(prop-1-yn-1-yl)-9H-purin-9-yl)methyl)tetrahydrothiophene-3,4-diol] stands “significantly promoted adiponectin production”.
For `O[C@@H]1[C@H](O)CO[C@H]1Cn1cnc2c(NCc3cccc(Cl)c3)nc(Cl)nc21` [4n, (2S,3R,4R)-2-((2-Chloro-6-((3-chlorobenzyl)amino)-9H-purin-9-yl)methyl)tetrahydrofuran-3,4-diol], in the experiment with hBM-MSCs, the “adiponectin production compared to the IDX vehicle control” value is listed as “significantly promoted adiponectin production”. In addition, the “interaction between PPARδ-LBD and corepressor peptide SMRT-ID2” value at PPARδ-LBD [1] was “significantly increased the interaction between PPARδ-LBD and the corepressor peptide”. For the same compound, the “recruitment … to PPARδ-LBD” value on PPARδ-LBD [3] is listed as “no effect on the recruitment of coactivator peptide”.
For `O[C@@H]1[C@H](O)CO[C@H]1Cn1cnc2c(NCc3cccc(Br)c3)nc(Cl)nc21` [4o, (2S,3R,4R)-2-((6-((3-Bromobenzyl)amino)-2-chloro-9H-purin-9-yl)methyl)tetrahydrofuran-3,4-diol], the “adiponectin production compared to the IDX vehicle control” value with hBM-MSCs is recorded as “significantly promoted adiponectin production”. In addition, the “interaction between PPARδ-LBD and corepressor peptide SMRT-ID2” value on PPARδ-LBD [1] was “significantly increased the interaction between PPARδ-LBD and the corepressor peptide”. In addition, at PPARδ-LBD [3], the “recruitment … to PPARδ-LBD” value is “no effect on the recruitment of coactivator peptide”.
`O[C@@H]1[C@H](O)CO[C@H]1Cn1cnc2c(NCc3cccc(I)c3)nc(Cl)nc21` [4p, (2S,3R,4R)-2-((2-Chloro-6-((3-iodobenzyl)amino)-9H-purin-9-yl)-methyl)tetrahydrofuran-3,4-diol]: at human A3AR [4], the hA3AR % replacement amounted to 3% at 10 μM.
